Article PMC3851289 (Molecular cell, 2013)

Target: VprBP (Homo sapiens, UniProt Q9Y4B6)
Assay: in vitro kinase assay with recombinant VprBP and H2A
Format: biochemical

Sequence of VprBP (Q9Y4B6 whole entry): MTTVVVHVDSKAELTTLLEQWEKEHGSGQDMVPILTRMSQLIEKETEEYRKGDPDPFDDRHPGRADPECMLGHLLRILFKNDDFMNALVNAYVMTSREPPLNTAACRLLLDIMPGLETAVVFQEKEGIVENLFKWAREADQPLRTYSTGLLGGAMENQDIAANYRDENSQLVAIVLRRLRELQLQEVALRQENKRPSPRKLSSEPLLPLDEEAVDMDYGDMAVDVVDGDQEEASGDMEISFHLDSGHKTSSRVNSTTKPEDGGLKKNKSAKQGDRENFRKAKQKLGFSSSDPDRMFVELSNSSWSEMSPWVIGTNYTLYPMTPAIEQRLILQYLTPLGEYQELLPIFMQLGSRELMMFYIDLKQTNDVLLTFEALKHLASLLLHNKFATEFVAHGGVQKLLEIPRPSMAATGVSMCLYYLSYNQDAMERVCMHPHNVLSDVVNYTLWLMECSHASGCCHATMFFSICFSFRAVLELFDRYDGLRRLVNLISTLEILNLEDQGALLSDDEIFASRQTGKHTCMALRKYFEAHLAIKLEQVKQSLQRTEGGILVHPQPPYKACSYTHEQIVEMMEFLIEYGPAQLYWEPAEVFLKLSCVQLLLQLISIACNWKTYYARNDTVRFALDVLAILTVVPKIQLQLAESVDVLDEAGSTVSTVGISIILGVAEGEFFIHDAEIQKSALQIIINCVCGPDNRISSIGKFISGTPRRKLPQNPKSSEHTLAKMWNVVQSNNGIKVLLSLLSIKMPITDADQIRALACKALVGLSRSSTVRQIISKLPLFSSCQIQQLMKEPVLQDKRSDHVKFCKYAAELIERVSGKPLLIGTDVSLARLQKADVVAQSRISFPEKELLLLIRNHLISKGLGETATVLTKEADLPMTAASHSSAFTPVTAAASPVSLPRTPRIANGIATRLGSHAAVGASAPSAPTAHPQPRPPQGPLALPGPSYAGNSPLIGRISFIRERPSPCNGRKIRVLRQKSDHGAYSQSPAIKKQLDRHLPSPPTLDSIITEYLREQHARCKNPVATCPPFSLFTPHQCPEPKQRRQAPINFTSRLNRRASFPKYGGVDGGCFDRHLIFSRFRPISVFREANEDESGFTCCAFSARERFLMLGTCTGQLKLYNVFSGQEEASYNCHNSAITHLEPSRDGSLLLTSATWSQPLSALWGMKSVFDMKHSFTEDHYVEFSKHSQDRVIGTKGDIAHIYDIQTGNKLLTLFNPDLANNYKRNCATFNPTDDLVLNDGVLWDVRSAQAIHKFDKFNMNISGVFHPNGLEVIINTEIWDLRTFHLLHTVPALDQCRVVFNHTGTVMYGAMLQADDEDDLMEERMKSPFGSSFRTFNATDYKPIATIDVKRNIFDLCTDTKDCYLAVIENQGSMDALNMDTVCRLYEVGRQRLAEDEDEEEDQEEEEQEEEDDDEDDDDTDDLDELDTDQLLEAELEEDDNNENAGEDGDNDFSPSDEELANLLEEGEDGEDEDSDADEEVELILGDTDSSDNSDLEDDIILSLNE

B32B3 was tested, and the IC50 was 0.6 µM.
